Our source for the inhibition and IC50 values is patent publication US10975119B2, “Selective cysteine protease inhibitors and uses thereof” (Genesis Technologies Limited, priority 2011, dated 2021).

What all share (format): biochemical
In one experiment the target is T1, Caspase-3 (Homo sapiens, UniProt P42574).
T1 construct: mixing the compounds with the respective active caspases; purchased BioVision K153-100
T1 sequence (P42574 29-175 limits assumed): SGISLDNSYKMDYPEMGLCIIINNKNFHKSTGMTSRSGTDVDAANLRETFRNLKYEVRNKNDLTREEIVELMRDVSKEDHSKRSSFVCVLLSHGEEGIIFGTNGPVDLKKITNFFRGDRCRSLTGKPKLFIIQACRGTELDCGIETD
T1 sequence (P42574 176-277 limits assumed): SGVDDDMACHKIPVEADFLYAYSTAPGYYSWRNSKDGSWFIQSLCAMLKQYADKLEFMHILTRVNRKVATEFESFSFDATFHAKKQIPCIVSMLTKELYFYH
The experiment is described as follows: Caspase-3 inhibitor screening assay (BioVision kit, DEVD-AFC). As to conditions: for inhibition at 10 µM: read-out: % Inhibition at 10 uM Casp3; for inhibition at 100 µM: read-out: % Inhibition at 100 uM Casp3. The protocol: (§1) The efficacy of an array of compounds as an inhibitor of the activity of Caspases 1 through 10 were assessed by using the respective Caspase Inhibitor Drug Screening Kits (Caspase-1 Catalog #: K151-100, Caspase-2 Catalog #: K152-100, Caspase-3 Catalog #: K153-100, Caspase-4 Catalog #: K154-100, Caspase-5 Catalog #: K155-100, Caspase-6 Catalog #: K156-100, Caspase-7 Catalog #: K157-100, Caspase-8 Catalog #: K158-100, Caspase-9 Catalog #: K159-100, Caspase-10 Catalog #: K160-100, BioVision) following the instructions of the manufacturer. […] Active caspases cleaved their respective synthetic substrates to release free AFC, which was then quantified by fluorometry.
(§2) Briefly, the compounds were first tested at 2 concentrations (10 uM and 100 uM final) to determine if there is a hit. […] Each condition was tested in duplicates. […] For some samples, a smaller range of concentrations was tested depending on the % Inhibition results at 10 uM and 100 uM. Results were summarized in Tables 2, 3, and 4 herein after. Table 2 represents the IC50 values (uM) of the test compounds as inhibitors of the activity of the various caspases.
(§3) (*) RFU (no inhibitor control)—RFU (compound at a specific concentration)
(§4) RFU (no inhibitor control)

In a further experiment the target is T2, Caspase-5 (Homo sapiens, UniProt P51878).
T2 construct: mixing the compounds with the respective active caspases; purchased BioVision K155-100
T2 sequence (P51878 137-327 limits assumed): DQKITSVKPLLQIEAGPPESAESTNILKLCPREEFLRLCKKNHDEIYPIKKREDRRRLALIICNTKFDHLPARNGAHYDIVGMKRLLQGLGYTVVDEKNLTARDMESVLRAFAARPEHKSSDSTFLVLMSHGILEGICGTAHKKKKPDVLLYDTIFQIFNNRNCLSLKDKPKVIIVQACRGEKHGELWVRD
T2 sequence (P51878 347-434 limits assumed): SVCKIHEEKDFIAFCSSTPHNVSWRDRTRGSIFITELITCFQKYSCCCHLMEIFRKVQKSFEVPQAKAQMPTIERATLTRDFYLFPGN
The experiment can be described thus: Caspase-5 inhibitor screening assay (BioVision kit, WEHD-AFC). As to conditions: for inhibition at 10 µM: read-out: % Inhibition at 10 uM Casp5; for inhibition at 100 µM: read-out: % Inhibition at 100 uM Casp5; for IC50: read-out: IC50 Casp5. On the procedure:
as §1, §2, §3, §4

The target of a further experiment is T3, Caspase-6 (Homo sapiens, UniProt P55212).
T3 construct: mixing the compounds with the respective active caspases; purchased BioVision K156-100
T3 sequence (P55212 24-179 limits assumed): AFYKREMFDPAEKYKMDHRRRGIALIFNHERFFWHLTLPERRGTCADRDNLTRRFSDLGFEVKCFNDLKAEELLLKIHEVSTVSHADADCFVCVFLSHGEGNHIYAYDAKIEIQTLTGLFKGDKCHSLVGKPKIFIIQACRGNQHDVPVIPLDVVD
T3 sequence (P55212 194-293 limits assumed): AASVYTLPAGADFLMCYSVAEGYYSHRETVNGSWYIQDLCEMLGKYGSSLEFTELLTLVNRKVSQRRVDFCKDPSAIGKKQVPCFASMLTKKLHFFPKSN
The experiment can be described thus: Caspase-6 inhibitor screening assay (BioVision kit, VEID-AFC). As to conditions: for inhibition at 10 µM: read-out: % Inhibition at 10 uM Casp6; for inhibition at 100 µM: read-out: % Inhibition at 100 uM Casp6; for IC50: read-out: IC50 Casp6. The protocol: as §1, §2, §3, §4

The target of another experiment is T4, Caspase-10 (Homo sapiens, UniProt Q92851).
T4 construct: mixing the compounds with the respective active caspases; purchased BioVision K160-100
T4 sequence (Q92851 220-415 limits assumed): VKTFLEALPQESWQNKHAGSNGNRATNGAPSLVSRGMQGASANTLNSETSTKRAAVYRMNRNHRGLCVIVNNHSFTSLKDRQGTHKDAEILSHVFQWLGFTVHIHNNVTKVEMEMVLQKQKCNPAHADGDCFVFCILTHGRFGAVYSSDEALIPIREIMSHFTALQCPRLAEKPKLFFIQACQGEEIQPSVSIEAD
T4 sequence (Q92851 416-521 limits assumed): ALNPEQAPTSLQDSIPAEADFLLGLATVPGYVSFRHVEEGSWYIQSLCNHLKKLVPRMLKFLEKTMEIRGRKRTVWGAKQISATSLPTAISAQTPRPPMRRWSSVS
The experiment can be described thus: Caspase-10 inhibitor screening assay (BioVision kit, AEVD-AFC). As to conditions: for inhibition at 10 µM: read-out: % Inhibition at 10 uM Casp10; for inhibition at 100 µM: read-out: % Inhibition at 100 uM Casp10; for IC50: read-out: IC50 Casp10. On the procedure:
as §1, §2, §3, §4

Each structure is given as a SMILES string. Where two headings read alike, the source gives them in different places. Some results are limits rather than exact numbers.

As a reminder, the inhibition is the relative decrease from the control value, in per cent. The IC50 is the point on the concentration scale where inhibition reaches its midpoint. For the molecule `CS(=O)(=O)/C=C/[C@H](CC(=O)O)NC(=O)[C@H]1CCC(=O)N1` [Compound 24, (2-Pyrrolidinone-5-carbonyl)-Asp methyl vinyl sulfone], the inhibition at 10 µM on Caspase-3 was determined as 0%; on Caspase-5, 0%; on Caspase-6 it was 0%; on Caspase-10, 21%. The inhibition at 100 µM at Caspase-3 came to 0%; on Caspase-5, 0%; at Caspase-6, 0%; on Caspase-10 it was 15%. Besides, the IC50 on Caspase-3 (read-out: IC50 Casp3), at Caspase-5, at Caspase-6 and at Caspase-10 was more than 100 µM throughout.
In the case of `CC(C)(C)[C@H](NC(=O)c1ccc2ncccc2n1)C(=O)N1CCCC1C(=O)N[C@H](/C=C/S(C)(=O)=O)CC(=O)O` (stereo in doubt) [Compound 8, (1,5-Naphthyridine-2-carbonyl)-t-Leu-Pro-Asp methyl vinyl sulfone], the inhibition at 10 µM was 3% on Caspase-3, 65% on Caspase-5, 2% at Caspase-6 and 27% at Caspase-10. Besides, the inhibition at 100 µM on Caspase-3 was found to be 5%; on Caspase-5 it was 97%; at Caspase-6 it was 1%; on Caspase-10, 90%. The IC50 at Caspase-3 (read-out: IC50 Casp3) is more than 100 µM; at Caspase-5 it was 5.9 µM; at Caspase-6 it was more than 100 µM; at Caspase-10, 18 µM.
For the molecule `CCC(C)[C@H](NC(=O)[C@H](CCC(=O)O)NC(=O)[C@@H](NC(=O)OCc1ccccc1)C(C)C)C(=O)N[C@H](/C=C/S(C)(=O)=O)CC(=O)O` (stereo partly drawn) [Compound 38, Z-Val-Glu-Ile-Asp-methyl vinyl sulfone], the inhibition at 10 µM was found to be 63% on Caspase-3, 32% on Caspase-5, 88% at Caspase-6 and 100% on Caspase-10. In addition, the inhibition at 100 µM on Caspase-3 came out at 89%; on Caspase-5 it was 81%; on Caspase-6, 96%; on Caspase-10, 100%. For the same molecule, the half-maximal inhibitory concentration (IC50) on Caspase-3 (read-out: IC50 Casp3) stood at 6.96 µM; on Caspase-5, 19.6 µM; at Caspase-6, 0.6 µM; at Caspase-10 it was 0.13 µM.
Regarding `CC(C)[C@H](NC(=O)[C@@H](N)Cc1ccc(O)cc1)C(=O)N[C@@H](C)C(=O)N[C@H](/C=C/S(C)(=O)=O)CC(=O)O` [Compound 42, Tyr-Val-Ala-Asp methyl vinyl sulfone], the inhibition at 10 µM on Caspase-3 came to 0%; at Caspase-5 it was 43%; at Caspase-6, 6%; at Caspase-10, 13%. The inhibition at 100 µM at Caspase-3 was 0%; at Caspase-5 it was 93%; on Caspase-6 it was 4%; at Caspase-10, 79%. The IC50 on Caspase-3 (read-out: IC50 Casp3) was more than 100 µM; on Caspase-5, 12.4 µM; at Caspase-6, more than 100 µM; on Caspase-10, 34 µM.
For `CC(C)(C)[C@H](NC(=O)c1ccc2ncccc2c1)C(=O)N1CCCC1C(=O)N[C@H](/C=C/S(C)(=O)=O)CC(=O)O` (stereo in doubt) [Compound 10, Quinoline-6-carbonyl-t-Leu-Pro-Asp methyl vinyl sulfone], the inhibition at 10 µM is 12% on Caspase-3, 78% at Caspase-5, 0% at Caspase-6 and 65% at Caspase-10. In addition, the inhibition at 100 µM at Caspase-3 was 16%; on Caspase-5 it was 98%; on Caspase-6, 0%; on Caspase-10, 98%. For the same molecule, the IC50 on Caspase-3 (read-out: IC50 Casp3) was more than 100 µM; at Caspase-5, 3 µM; at Caspase-6, more than 100 µM; at Caspase-10 it was 4.67 µM.
With `CS(=O)(=O)/C=C/[C@H](CC(=O)O)NC(=O)[C@H]1CCCN1C(=O)[C@@H](NC(=O)[C@H](CC(=O)O)NC(=O)OCc1ccccc1)c1ccccc1` [Compound 30, Z-Asp-Phenylglycine-Pro-Asp-methyl vinyl sulfone], the inhibition at 10 µM was 68% on Caspase-3, 8% on Caspase-5, 0% at Caspase-6 and 43% at Caspase-10. Also, the inhibition at 100 µM at Caspase-3 was 95%; on Caspase-5 it was 50%; at Caspase-6, 2%; at Caspase-10 it was 92%. The IC50 was 3.4 µM at Caspase-3 (read-out: IC50 Casp3); 3.41 µM on Caspase-3 (read-out: potency (IC50) against caspase-3); approximately 100 µM at Caspase-5; more than 100 µM on Caspase-6; 12.9 µM on Caspase-10.
For the molecule `CC(C)[C@H](NC(=O)[C@H](CCC(=O)O)NC(=O)[C@H](Cc1c[nH]c2ccccc12)NC(=O)OCc1ccccc1)C(=O)N[C@H](/C=C/S(C)(=O)=O)CC(=O)O` [Compound 40, Z-Trp-Glu-Val-Asp-methyl vinyl sulfone], the inhibition at 10 µM stood at 63% on Caspase-3, 95% on Caspase-5, 7% at Caspase-6 and 80% at Caspase-10. The inhibition at 100 µM came to 94% at Caspase-3, 100% at Caspase-5, 51% at Caspase-6 and 99% at Caspase-10. The IC50 was 6.55 µM at Caspase-3 (read-out: IC50 Casp3), 0.75 µM on Caspase-5, approximately 100 µM at Caspase-6 and 3.29 µM at Caspase-10.
As to `CS(=O)(=O)/C=C/[C@H](CC(=O)O)NC(=O)[C@H](CCC(=O)O)NC(=O)c1ccc2ccccc2n1` [Compound 18, 2-Quinoline carbonyl-Glu-Asp methyl vinyl sulfone], the inhibition at 10 µM at Caspase-3 is 4%; on Caspase-5 it was 0%; on Caspase-6, 0%; on Caspase-10, 14%. The inhibition at 100 µM is 2% at Caspase-3, 1% at Caspase-5, 8% at Caspase-6 and 0% at Caspase-10. Further, the IC50 at Caspase-3 (read-out: IC50 Casp3), on Caspase-5, on Caspase-6 and on Caspase-10 was more than 100 µM in each case.
Regarding `CC(C)(C)OC(=O)CC[C@H](NC(=O)OC(C)(C)C)C(=O)N[C@H](/C=C/S(C)(=O)=O)CC(=O)OC(C)(C)C` [Compound 21, Boc-Glu(O—tBu)-Asp (O—tBu)-methyl vinyl sulfone], the inhibition at 10 µM at Caspase-3 came out at 0%; on Caspase-5 it was 3%; at Caspase-6, 1%; on Caspase-10 it was 0%. The inhibition at 100 µM on Caspase-3 is 4%; on Caspase-5, 7%; at Caspase-6, 10%; on Caspase-10, 0%. For the same molecule, the IC50 on Caspase-3 (read-out: IC50 Casp3), at Caspase-5, at Caspase-6 and on Caspase-10 was more than 100 µM each time.
